Experimental data taken from publication PMC6925260 (Nature Communications, 2019).
Where a chain is given by its changes, count along the chain named. Where two headings read alike, the source gives them in different places.

Assays:
[1] = biological target: PPARγ LBD (wt) / CBP peptide (Homo sapiens, UniProt P37231); assay: Fluorescence anisotropy, CBP peptide to wt PPARγ LBD
K347A PPARg LBD = assay: Supplementary Figure 11: fluorescence anisotropy dissociation constants, K347A (peptide not given); format: binding
[2] = biological target: T1, K347A PPARγ LBD / SMRT peptide (Homo sapiens, UniProt P37231, K347A); assay: Fluorescence anisotropy, SMRT peptide to K347A PPARγ LBD; format: binding
T1 construct: 6× His tag with TEV recognition site (N, cleaved yes); made in house; host or cells: E. coli BL21 (DE3) gold
T1 sequence (P37231 230-505 K347A): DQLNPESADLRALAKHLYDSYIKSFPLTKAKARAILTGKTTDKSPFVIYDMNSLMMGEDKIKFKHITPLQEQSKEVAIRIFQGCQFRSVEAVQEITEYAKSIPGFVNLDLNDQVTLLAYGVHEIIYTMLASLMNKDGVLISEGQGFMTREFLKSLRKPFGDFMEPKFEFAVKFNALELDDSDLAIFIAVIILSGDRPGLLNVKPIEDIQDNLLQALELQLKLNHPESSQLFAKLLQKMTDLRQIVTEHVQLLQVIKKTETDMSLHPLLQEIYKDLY
Protocol: (§1) These samples were then plated as usual.

[3] = biological target: T2, PPARγC313A,Q322C-BTFA LBD / MED1 peptide (Homo sapiens, UniProt P37231, C313A/Q322C); assay: Fluorescence anisotropy, MED1 peptide to PPARγC313A,Q322C-BTFA LBD; format: binding; details: Supp. Table 2
T2 construct: 6× His tag with TEV recognition site (N, cleaved yes); made in house; host or cells: E. coli BL21 (DE3) gold
Protocol: as §1

PPARg LBD N340A = assay: Supplementary Figure 11: fluorescence anisotropy dissociation constants, N340A (peptide not given)
[4] = biological target: T3, K347A PPARγ LBD / NCoR peptide (Homo sapiens, UniProt P37231, K347A); assay: Fluorescence anisotropy, NCoR peptide to K347A PPARγ LBD; format: binding; details: read-out: NCoR dissociation constant average, K347A; Supp. Fig. 11
T3 construct: 6× His tag with TEV recognition site (N, cleaved yes); made in house; host or cells: E. coli BL21 (DE3) gold
Protocol: as §1

PPARγ = details: Supp. Table 9 summary; comparator apo/vehicle; ref 1,4 (supplement); cited from earlier work
[5] = biological target: PPARγ LBD, deletion of helix 12 / NCoR peptide; assay: Fluorescence anisotropy, NCoR peptide to helix 12 deleted (DH12) PPARγ LBD; format: binding; details: read-out: NCoR dissociation constant average, DH12; Supp. Fig. 11
Protocol: as §1

K329A PPARg LBD = assay: Supplementary Figure 11: fluorescence anisotropy dissociation constants, K329A (peptide not given)
[6] = biological target: T4, PPARγ LBD (wt) / SMRT CoRNR box peptide (Homo sapiens, UniProt P37231); assay: Fluorescence anisotropy, SMRT peptide to wt PPARγ LBD (alone or ligand bound); format: binding
T4 construct: 6× His tag with TEV recognition site (N, cleaved yes); made in house; host or cells: E. coli BL21 (DE3) gold
T4 sequence (P37231 230-505): T1 sequence (P37231 230-505 K347A) with A118K
Protocol: as §1

[7] = biological target: T5, K329A PPARγ LBD / SMRT peptide (Homo sapiens, UniProt P37231, K329A); assay: Fluorescence anisotropy, SMRT peptide to K329A PPARγ LBD; format: binding
T5 construct: 6× His tag with TEV recognition site (N, cleaved yes); made in house; host or cells: E. coli BL21 (DE3) gold
T5 sequence (P37231 230-505 K329A): T1 sequence (P37231 230-505 K347A) with K100A, A118K
Protocol: as §1

[8] = biological target: T6, PPARγC313A,Q322C-BTFA LBD / NCoR peptide (Homo sapiens, UniProt P37231, C313A/Q322C); assay: Fluorescence anisotropy, NCoR peptide to PPARγC313A,Q322C-BTFA LBD; format: binding; details: Supp. Table 2
T6 construct: 6× His tag with TEV recognition site (N, cleaved yes); made in house; host or cells: E. coli BL21 (DE3) gold
T6 sequence (P37231 230-505 C313A/Q322C): T1 sequence (P37231 230-505 K347A) with C84A, Q93C, A118K
Protocol: as §1

PPARg LBD DH12 = assay: Supplementary Figure 11: fluorescence anisotropy dissociation constants, DH12 (peptide not given); format: binding
wt PPARg LBD = assay: Supplementary Figure 11: fluorescence anisotropy dissociation constants, wt PPARγ LBD (peptide not given); format: binding
[9] = data set 2 28 18 FP inverse agonism, read-out: dissociation constant
[10] = data set FP K329A K347A 3 20 18, read-out: dissociation constant
[11] = read-out: dissociation constant, data set FP 3 15 18 Inverse agonism part 2
[12] = data set FP 3 15 18 Inverse agonism part 2, read-out: dissociation constant

With `O=C(Nc1ccccc1)c1cc([N+](=O)[O-])ccc1Cl` [GW9662] the Kd ([1]; read-out: CBP Kd, ligand-bound, run 1) was 4700 nM, the Kd ([1]; read-out: CBP Kd, ligand-bound, run 2) was 3350 nM and the Kd (K347A PPARg LBD; [9]) was 692 nM. For the same compound, the Kd (K347A PPARg LBD; [10]) was 488 nM, the “SMRT Kd, wt vs K347A mean difference ± SE” value ([2]; Supp. Fig. 12) was 64 ± 631 and the Kd ([2]; Supp. Fig. 12, read-out: SMRT dissociation constant average, K347A) was 570 nM. The Kd ([2]; run SMRT FP 4 5 18, read-out: SMRT dissociation constant, K347A) was 527 nM, the Kd ([2]; run SMRT FP 4 6 18, read-out: SMRT dissociation constant, K347A) was 638 nM and the Kd ([2]; run SMRT FP 4 10 18, read-out: SMRT dissociation constant, K347A) was 546 nM. For the same compound, the “MED1 fold change (labeled/wt), PPARγC313A,Q322C-BTFA” value [3] was 2.3, the Kd ([3]; read-out: MED1 Kd, PPARγC313A,Q322C-BTFA, covalent ligands T0070907, GW9662 expected to be apo-like) was 9750 nM and the Kd (PPARg LBD N340A; read-out: dissociation constant, Average N340A values, average of the listed data sets) was 485 nM. It also gave a Kd (PPARg LBD N340A; [11]) of 342 nM, a Kd (PPARg LBD N340A; read-out: dissociation constant, data set PPARg LBD N340A 12 11 17) of 628 nM and a Kd [4] of 590 nM. For the same compound, the “effect on reporter expression in cells” value (PPARγ) was “no effect”, the Kd [5] was 93 nM and the “Kd mutant/Kd wt” value (K329A PPARg LBD; ratio of averages) was 7.158. For the same compound, the Kd (K329A PPARg LBD; read-out: dissociation constant, Average K329A values, average of the listed data sets) was 1820 nM, the Kd (K329A PPARg LBD; [11]) was 1800 nM and the Kd (K329A PPARg LBD; read-out: dissociation constant, data set FP K329A K347A 3 20 18) was 1850 nM. The Kd ([6]; Supp. Fig. 12, read-out: SMRT dissociation constant average, wt) was 634 nM, the “SMRT Kd mean difference ±SE, Apo vs ligand” value ([6]; Supp. Table 4, wt, 9 df) was 923 ±178 and the Kd ([6]; run SMRT FP 4 5 18, read-out: SMRT dissociation constant, WT) was 445 nM. For the same compound, the Kd ([6]; run SMRT FP 4 6 18, read-out: SMRT dissociation constant, WT) was 482 nM, the Kd ([6]; run SMRT FP 4 10 18, read-out: SMRT dissociation constant, WT) was 976 nM and the “effect on affinity/recruitment of SMRT CoRNR peptide” value ([6]; versus apo) was “increase affinity”. For the same compound, the “SMRT Kd, wt vs K329A mean difference ± SE” value ([7]; Supp. Fig. 12) was -1916±631, the Kd ([7]; Supp. Fig. 12, read-out: SMRT dissociation constant average, K329A) was 2550 nM and the Kd ([7]; run SMRT FP 4 5 18, read-out: SMRT dissociation constant, K329A) was 1330 nM. For the same compound, the Kd ([7]; run SMRT FP 4 6 18, read-out: SMRT dissociation constant, K329A) was 1850 nM, the Kd ([7]; run SMRT FP 4 10 18, T0070907 value 5903 excluded by the authors, read-out: SMRT dissociation constant, K329A) was 4470 nM and the “NCoR fold change (labeled/wt), PPARγC313A,Q322C-BTFA” value [8] was 1.3. For the same compound, the Kd ([8]; read-out: NCoR Kd, PPARγC313A,Q322C-BTFA, covalent ligands T0070907, GW9662 expected to be apo-like) was 348 nM, the Kd (PPARg LBD DH12; data set 6-23-17, read-out: dissociation constant) was 66.2 nM and the Kd (PPARg LBD DH12; data set 6-26-17 FP, read-out: dissociation constant) was 155 nM. The Kd (PPARg LBD DH12; [12]) was 27.1 nM, the Kd (PPARg LBD DH12; data set PPARg LBD DH12 9-26-17, read-out: dissociation constant) was 145 nM and the Kd (PPARg LBD DH12; data set PPARg LBD DH12 10-24-17, read-out: dissociation constant) was 73.1 nM. The Kd (wt PPARg LBD; average of the listed data sets, read-out: dissociation constant, Average wt values) was 255 nM, the Kd (wt PPARg LBD; [9]) was 242 nM and the Kd (wt PPARg LBD; [12]) was 269 nM. For the same compound, the Kd (wt PPARg LBD; [10]) was 254 nM.
